Reference: patent US20070191291A1, “Compound antibacterial drugs comprising n-acetyl-d-glucosamine” (priority 2003, published 2007)
Like-named read-outs stand apart in the source and are kept apart here.

Assays:
Bacillus proteus = test: Test Example 2: preventing formation of bacterial CGC in vitro (K-B method); format: cell-based
Procedure: (§1) E. coli (No. 33310, purchased from Chengdu Institute of Biological Products, the Ministry of Public Health) was used in the tests. Grid design was performed by using antibiotic with different concentrations and N-acetyl-D-glucosamine having an amount of from 10 mg to 300 mg. Streak plates were conducted separately, and K-B method was employed for drugs. Colonies at marginal part of drug inhibition zone were picked and were observed under microscope. If cell length was more than 50 μm and cell number was more than 5 in each visual field, it was deemed as CGC positive and was marked with “+”; while if cell length was not greater than 50 μm and cell number was within the range from 0 to 4 in each visual field, it was deemed as CGC negative and was marked with “−”. At this time, the ratio of two substances was called “effective ratio”.
(§2) Effects tests of compound preparation comprising N-acetyl-D-glucosamine and antibiotics for preventing the formation of bacterial CGC in vitro.
(§3) The tests were carried out in vitro, wherein gram-negative amphimicrodes, gram-negative anaerobes and gram-positive aerobes were separately coated on streak plates, test drugs and control drugs were separately dissolved with same volume of sterile water for injection, 10 μl of each drug was used for preparing drug-sensitive paper, K-B method was employed in the tests of drugs, and the inhibition situations of CGC formation were observed.

E. coli = test: as above; format: cell-based
Procedure: as §1, §2, §3

Diphtheroid bacillus = test: as above; format: cell-based
Procedure: as §1, §2, §3

Citro Bacter = test: as above; format: cell-based
Procedure: as §1, §2, §3

Listeria = test: as above; format: cell-based
Procedure: as §1, §2, §3

Nucleic Acid Bacter = test: as above; format: cell-based
Procedure: as §1, §2, §3

Bacteroides fragilis = test: as above; format: cell-based
Procedure: as §1, §2, §3

Klebsiella = test: as above; format: cell-based
Procedure: as §1, §2, §3

Bacillus cereus = test: as above; format: cell-based
Procedure: as §1, §2, §3

[1] = test system: irritable bowel syndrome (IBS) caused by bacterial CGC; test: Test Example 5: preventing irritable bowel syndrome (IBS) caused by bacterial CGC; format: in vivo, rats; conditions: for CGCs in the rat stools after one week of drug withdrawal / CGCs in the stools of the rats: rats, effective dosage for consecutive 10 days, 30 rats per group; for CGCs in the stools of the rats: stools observed during administration and within 1 week after drug withdrawal
Description: On this basis, the rats were subjected to stimulations such as electric stimulation, intragastric administration with fructus zanthoxyli water, cold, constraint etc. in order to induce IBS, and the incidence rates of IBS of two groups were observed.

[2] = test system: rats infected and not infected by Bacillus typhi murium; format: in vivo, Wistar rats; conditions: rats infected or not by Bacillus typhi murium, consecutive week, 15 rats per group
[3] = compound preparation 150 mg N-acetyl-D-glucosamine + 150 mg ampicillin, control ampicillin
[4] = first of three values given respectively: electric stimulation
[5] = second of three values given respectively: intragastric administration with fructus zanthoxyli water
[6] = third of three values given respectively: cold, constraint etc.
[7] = compound preparation 100 mg N-acetyl-D-glucosamine + 300 mg cefuroxime, control 300 mg cefuroxime

**Q.** Which CGC formation (Bacillus proteus; [3]) does the source give for `CC1(C)S[C@@H]2[C@H](NC(=O)[C@H](N)c3ccccc3)C(=O)N2[C@H]1C(=O)O` [Ampicillin, ampicillin] here?
**A.** + (If cell length was more than 50 μm and cell number was more than 5 in each visual field, it was deemed as CGC positive and was marked with “+”)

**Q.** And the CGC formation (E. coli; [3])?
**A.** + (If cell length was more than 50 μm and cell number was more than 5 in each visual field, it was deemed as CGC positive and was marked with “+”)

**Q.** What about the CGC formation (Diphtheroid bacillus; [3]) of the same compound?
**A.** + (If cell length was more than 50 μm and cell number was more than 5 in each visual field, it was deemed as CGC positive and was marked with “+”)

**Q.** And the CGC formation (Citro Bacter; [3])?
**A.** + (If cell length was more than 50 μm and cell number was more than 5 in each visual field, it was deemed as CGC positive and was marked with “+”)

**Q.** What about the CGC formation (Listeria; [3]) of the same compound?
**A.** + (If cell length was more than 50 μm and cell number was more than 5 in each visual field, it was deemed as CGC positive and was marked with “+”)

**Q.** And the CGC formation (Nucleic Acid Bacter; [3])?
**A.** + (If cell length was more than 50 μm and cell number was more than 5 in each visual field, it was deemed as CGC positive and was marked with “+”)

**Q.** What about the CGC formation (Bacteroides fragilis; [3]) of the same compound?
**A.** + (If cell length was more than 50 μm and cell number was more than 5 in each visual field, it was deemed as CGC positive and was marked with “+”)

**Q.** And the CGC formation (Klebsiella; [3])?
**A.** + (If cell length was more than 50 μm and cell number was more than 5 in each visual field, it was deemed as CGC positive and was marked with “+”)

**Q.** And the CGC formation (Bacillus cereus; [3])?
**A.** + (If cell length was more than 50 μm and cell number was more than 5 in each visual field, it was deemed as CGC positive and was marked with “+”)

**Q.** What about the “incidence rate of IBS” value [1, 4] of the same compound?
**A.** 33%

**Q.** What about the “CGCs in the rat stools after one week of drug withdrawal” value [1] of the same compound?
**A.** still present

**Q.** What about the “CGCs in the stools of the rats” value [1] of the same compound?
**A.** a large amount of CGCs appeared

**Q.** And the “incidence rate of IBS” value [1, 5]?
**A.** 33%

**Q.** What about the “incidence rate of IBS” value [1, 6] of the same compound?
**A.** 33%

**Q.** And the “positive rates of stool CGC and intestinal mucosa CGC” value ([2]; N-acetyl-D-glucosamine (100 mg)+ampicillin (200 mg) vs only ampicillin)?
**A.** 100%

**Q.** `CO/N=C(\C(=O)N[C@@H]1C(=O)N2C(C(=O)O)=C(COC(N)=O)CS[C@H]12)c1ccco1` [Cefuroxime, cefuroxime] was tested. Which CGC formation (Bacillus proteus; [7]) did it give?
**A.** + (If cell length was more than 50 μm and cell number was more than 5 in each visual field, it was deemed as CGC positive and was marked with “+”)

**Q.** What about the CGC formation (E. coli; [7]) of the same compound?
**A.** + (If cell length was more than 50 μm and cell number was more than 5 in each visual field, it was deemed as CGC positive and was marked with “+”)

**Q.** And the CGC formation (Diphtheroid bacillus; [7])?
**A.** + (If cell length was more than 50 μm and cell number was more than 5 in each visual field, it was deemed as CGC positive and was marked with “+”)

**Q.** And the CGC formation (Citro Bacter; [7])?
**A.** + (If cell length was more than 50 μm and cell number was more than 5 in each visual field, it was deemed as CGC positive and was marked with “+”)

**Q.** What about the CGC formation (Listeria; [7]) of the same compound?
**A.** + (If cell length was more than 50 μm and cell number was more than 5 in each visual field, it was deemed as CGC positive and was marked with “+”)

**Q.** And the CGC formation (Nucleic Acid Bacter; [7])?
**A.** + (If cell length was more than 50 μm and cell number was more than 5 in each visual field, it was deemed as CGC positive and was marked with “+”)

**Q.** What about the CGC formation (Bacteroides fragilis; [7]) of the same compound?
**A.** + (If cell length was more than 50 μm and cell number was more than 5 in each visual field, it was deemed as CGC positive and was marked with “+”)

**Q.** And the CGC formation (Klebsiella; [7])?
**A.** + (If cell length was more than 50 μm and cell number was more than 5 in each visual field, it was deemed as CGC positive and was marked with “+”)

**Q.** And the CGC formation (Bacillus cereus; [7])?
**A.** + (If cell length was more than 50 μm and cell number was more than 5 in each visual field, it was deemed as CGC positive and was marked with “+”)

**Q.** What about the “incidence rate of IBS” value [1, 4] of the same compound?
**A.** 33%

**Q.** And the “CGCs in the rat stools after one week of drug withdrawal” value [1]?
**A.** still present

**Q.** What about the “CGCs in the stools of the rats” value [1] of the same compound?
**A.** a large amount of CGCs appeared

**Q.** And the “incidence rate of IBS” value [1, 5]?
**A.** 33%

**Q.** And the “incidence rate of IBS” value [1, 6]?
**A.** 33%

**Q.** And the “positive rates of stool CGC and intestinal mucosa CGC” value ([2]; N-acetyl-D-glucosamine (100 mg)+cefuroxime (300 mg) vs antibiotic only)?
**A.** 100%
